This assay deals with Nav 1.7 (Homo sapiens (Human), UniProt Q15858). As to the kind of experiment: Nav 1.7 in vitro PX assay (PatchXpress whole cell voltage clamp). The class given is cell-based. As to conditions: 293 cells, human Nav1.7, partially inactivated state; read-out: Nav1.7 PX IC50 IP. On the procedure: Nav 1.7 In Vitro PX Assay
Sequence of Nav 1.7 (Q15858 whole entry): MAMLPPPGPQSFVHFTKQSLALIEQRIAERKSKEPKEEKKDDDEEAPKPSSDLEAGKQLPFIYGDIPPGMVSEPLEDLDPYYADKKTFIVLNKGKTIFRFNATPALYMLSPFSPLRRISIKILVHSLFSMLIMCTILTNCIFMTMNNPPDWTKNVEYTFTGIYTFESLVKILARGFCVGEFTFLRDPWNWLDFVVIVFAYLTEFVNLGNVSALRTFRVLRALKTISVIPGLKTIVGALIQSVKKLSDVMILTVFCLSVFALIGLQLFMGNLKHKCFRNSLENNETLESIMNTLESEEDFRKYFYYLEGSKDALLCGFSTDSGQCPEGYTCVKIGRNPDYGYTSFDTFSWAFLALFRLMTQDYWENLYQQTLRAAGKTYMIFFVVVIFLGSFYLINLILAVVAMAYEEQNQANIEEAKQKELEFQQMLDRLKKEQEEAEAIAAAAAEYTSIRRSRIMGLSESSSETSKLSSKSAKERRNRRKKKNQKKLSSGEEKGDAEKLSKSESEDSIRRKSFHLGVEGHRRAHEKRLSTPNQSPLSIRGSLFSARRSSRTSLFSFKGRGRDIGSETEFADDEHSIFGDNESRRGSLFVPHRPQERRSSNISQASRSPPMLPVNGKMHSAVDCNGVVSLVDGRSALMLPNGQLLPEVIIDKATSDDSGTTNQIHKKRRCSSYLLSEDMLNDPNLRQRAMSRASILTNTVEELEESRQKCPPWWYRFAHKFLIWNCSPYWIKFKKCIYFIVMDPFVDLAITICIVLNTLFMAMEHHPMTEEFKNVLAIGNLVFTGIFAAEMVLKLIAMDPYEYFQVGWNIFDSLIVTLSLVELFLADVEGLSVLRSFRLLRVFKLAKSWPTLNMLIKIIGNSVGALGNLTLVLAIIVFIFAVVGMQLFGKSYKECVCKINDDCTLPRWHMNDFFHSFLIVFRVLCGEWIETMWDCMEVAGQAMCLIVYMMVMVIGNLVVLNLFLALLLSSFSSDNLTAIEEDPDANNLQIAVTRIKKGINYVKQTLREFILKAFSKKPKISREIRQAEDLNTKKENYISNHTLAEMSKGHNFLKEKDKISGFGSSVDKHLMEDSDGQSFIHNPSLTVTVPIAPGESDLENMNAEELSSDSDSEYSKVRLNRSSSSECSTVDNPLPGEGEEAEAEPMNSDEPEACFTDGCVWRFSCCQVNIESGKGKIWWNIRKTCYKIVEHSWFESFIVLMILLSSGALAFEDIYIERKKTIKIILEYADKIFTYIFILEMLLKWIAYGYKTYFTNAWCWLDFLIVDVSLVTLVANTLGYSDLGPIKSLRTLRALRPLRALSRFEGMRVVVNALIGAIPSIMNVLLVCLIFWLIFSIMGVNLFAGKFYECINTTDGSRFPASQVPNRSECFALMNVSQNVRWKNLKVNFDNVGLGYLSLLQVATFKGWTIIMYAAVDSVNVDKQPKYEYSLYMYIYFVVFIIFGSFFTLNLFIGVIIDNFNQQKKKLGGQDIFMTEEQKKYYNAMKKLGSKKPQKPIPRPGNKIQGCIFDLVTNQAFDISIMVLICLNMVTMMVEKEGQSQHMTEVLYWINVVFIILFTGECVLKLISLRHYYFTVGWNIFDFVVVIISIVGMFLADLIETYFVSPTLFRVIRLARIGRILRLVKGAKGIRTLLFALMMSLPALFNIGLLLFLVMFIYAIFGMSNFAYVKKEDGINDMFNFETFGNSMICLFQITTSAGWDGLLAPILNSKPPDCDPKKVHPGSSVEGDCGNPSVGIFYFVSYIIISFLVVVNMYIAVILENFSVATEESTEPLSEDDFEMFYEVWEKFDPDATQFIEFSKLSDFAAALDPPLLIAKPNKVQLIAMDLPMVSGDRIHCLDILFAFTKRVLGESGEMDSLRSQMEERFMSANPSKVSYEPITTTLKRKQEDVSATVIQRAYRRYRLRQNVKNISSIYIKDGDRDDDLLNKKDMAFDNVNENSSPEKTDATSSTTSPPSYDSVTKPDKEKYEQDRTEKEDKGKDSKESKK
293 cells stably transfected with human Nav1.7 were recorded in whole cell voltage clamp mode with the PatchXpress automated electrophysiology system (Molecular Devices, LLC, Sunnyvale, Calif.). Compound effects were measured on a partially inactivated state of the sodium channel. Cells were clamped to a holding potential yielding 20 to 50% inactivation. To elicit sodium current, channels were activated by pulsing to −10 mV for 20 msec. […] A single concentration of test compound was applied to cells for a duration of 3 minutes. Peak sodium current was measured at the end of the compound addition period to determine percent inhibition. Three to five cells were tested per concentration, and IC50 curves were fitted to percent inhibition as a function of concentration.
Regarding `COc1ccc(-c2ccc(-c3nccc4cc(S(=O)(=O)Nc5ccncn5)ccc34)c(OC)c2)cn1` [Example 483, 1-(2-METHOXY-4-(6-METHOXYPYRIDIN-3-YL)PHENYL)-N-(PYRIMIDIN-4-YL)ISOQUINOLINE-6-SULFONAMIDE], the IC50 (commonly the midpoint of a concentration-inhibition curve) came to 1400 nM. The value for `COc1cc(C(F)(F)F)ccc1-c1nccc2cc(S(=O)(=O)Nc3ccon3)ccc12` [Example 423] was 1340 nM; that for `COc1nc(Cl)ccc1-c1nccc2cc(S(=O)(=O)Nc3nccs3)ccc12` [Example 408, 1-(6-CHLORO-2-METHOXYPYRIDIN-3-YL)-N-(THIAZOL-2-YL)ISOQUINOLINE-6-SULFONAMIDE] was 986 nM; that for `O=S(=O)(Nc1ncns1)c1ccc2c(N3CCC[C@@H]3c3ccncc3)cccc2c1` (single isomer, unassigned) [Example 90] was 39.3 nM.

`COc1nc(-c2ccc(F)c(F)c2)ccc1-c1nccc2cc(S(=O)(=O)Nc3ccncn3)ccc12` [Example 499, 1-(6-(3,4-DIFLUOROPHENYL)-2-METHOXYPYRIDIN-3-YL)-N-(PYRIMIDIN-4-YL)ISOQUINOLINE-6-SULFONAMIDE]: the concentration for half-maximal inhibition (IC50) is 830 nM.

On to `COc1ccccc1-c1ncc(C#N)c2cc(S(=O)(=O)Nc3nccs3)ccc12` [Example 400, 4-CYANO-1-(2-METHOXYPHENYL)-N-(THIAZOL-2-YL)ISOQUINOLINE-6-SULFONAMIDE], for which the IC50 is 1330 nM.

As to `COc1cc(C(F)(F)F)ccc1-c1ccnc2cc(S(=O)(=O)Nc3nccs3)cc(C)c12` [Example 282, 4-(2-METHOXY-4-(TRIFLUOROMETHYL)PHENYL)-5-METHYL-N-(THIAZOL-2-YL)QUINOLINE-7-SULFONAMIDE], the IC50 worked out at 3290 nM. The value for `COc1cc(C(F)(F)F)ccc1-c1nc(C)nc2cc(S(=O)(=O)Nc3ccncn3)ccc12` [Example 518, 4-(2-METHOXY-4-(TRIFLUOROMETHYL)PHENYL)-2-METHYL-N-(PYRIMIDIN-4-YL)QUINAZOLINE-7-SULFONAMIDE] was 2600 nM. To `COc1nc(OCC(C)C)ccc1-c1nccc2cc(S(=O)(=O)Nc3ccncn3)ccc12` [Example 418, 1-(6-ISOBUTOXY-2-METHOXYPYRIDIN-3-YL)-N-(PYRIMIDIN-4-YL)ISOQUINOLINE-6-SULFONAMIDE] belongs 2130 nM.

On to `COc1cc(-c2cc(F)cc(F)c2)ccc1-c1nccc2cc(S(=O)(=O)Nc3nnco3)ccc12` [Example 372, 1-(3′,5′-DIFLUORO-3-METHOXY-[1,1′-BIPHENYL]-4-YL)-N-(1,3,4-OXADIAZOL-2-YL)ISOQUINOLINE-6-SULFONAMIDE], for which the IC50 amounted to 16600 nM.

Consider `COc1cc(C(F)(F)F)ccc1-c1nccc2cc(S(=O)(=O)Nc3ncc(F)cn3)ccc12` [Example 426], for which the IC50 was 2490 nM.

Turning to `COc1nc(C)ccc1-c1nccc2cc(S(=O)(=O)Nc3nccs3)ccc12` [Example 412, 1-(2-METHOXY-6-METHYLPYRIDIN-3-YL)-N-(THIAZOL-2-YL)ISOQUINOLINE-6-SULFONAMIDE], the IC50 turned out to be 1030 nM. To `COc1cc(-c2cccnc2F)ccc1-c1nccc2cc(S(=O)(=O)Nc3ccncn3)ccc12` [Example 473, 1-(4-(2-FLUOROPYRIDIN-3-YL)-2-METHOXYPHENYL)-N-(PYRIMIDIN-4-YL)ISOQUINOLINE-6-SULFONAMIDE] belongs 1360 nM. To `COc1cc(C(F)(F)F)ccc1-c1nccc2cc(S(=O)(=O)Nc3cocn3)ccc12` [Example 440, 1-(2-METHOXY-4-(TRIFLUOROMETHYL)PHENYL)-N-(OXAZOL-4-YL)ISOQUINOLINE-6-SULFONAMIDE] belongs 4100 nM. Take `COc1cc(F)ccc1-c1cncc2cc(S(=O)(=O)Nc3nccs3)ccc12` [Example 290, 4-(4-FLUORO-2-METHOXYPHENYL)-N-(THIAZOL-2-YL)ISOQUINOLINE-7-SULFONAMIDE]: the concentration for half-maximal inhibition (IC50) stood at 600 nM.

As to `COc1cc(C(F)(F)F)ccc1-c1n[nH]c(=O)c2cc(S(=O)(=O)Nc3ccncn3)ccc12` [Example 506, 1-(2-METHOXY-4-(TRIFLUOROMETHYL)PHENYL)-4-OXO-N-(PYRIMIDIN-4-YL)-3,4-DIHYDROPHTHALAZINE-6-SULFONAMIDE], the IC50 was 3000 nM.

Regarding `COc1cc(-c2ccc3[nH]ccc3c2)ccc1-c1nccc2cc(S(=O)(=O)Nc3ccncn3)ccc12` [Example 489, 1-(4-(1H-INDOL-5-YL)-2-METHOXYPHENYL)-N-(PYRIMIDIN-4-YL)ISOQUINOLINE-6-SULFONAMIDE], the IC50 came to 1830 nM. As to `COc1ncccc1-c1ncc(F)c2cc(S(=O)(=O)Nc3nccs3)ccc12` [Example 396, 4-FLUORO-1-(2-METHOXYPYRIDIN-3-YL)-N-(THIAZOL-2-YL)ISOQUINOLINE-6-SULFONAMIDE], the IC50 came to 1040 nM.

In the case of `COc1cc(C(F)(F)F)ccc1-c1nccc2cc(S(=O)(=O)Nc3nnc(Cl)s3)ccc12` [Example 425, N-(5-CHLORO-1,3,4-THIADIAZOL-2-YL)-1-(2-METHOXY-4-(TRIFLUOROMETHYL)PHENYL)ISOQUINOLINE-6-SULFONAMIDE], the IC50 was determined as 2210 nM. The value for `COc1ccccc1-c1c(Br)cnc2cc(S(=O)(=O)Nc3nccs3)ccc12` [Example 325, 3-BROMO-4-(2-METHOXYPHENYL)-N-(THIAZOL-2-YL)QUINOLINE-7-SULFONAMIDE] was 5110 nM. The value for `COc1cc(C(F)(F)F)ccc1-c1nccc2cc(S(=O)(=O)Nc3cnsn3)ccc12` [Example 388, 1-(2-METHOXY-4-(TRIFLUOROMETHYL)PHENYL)-N-(1,2,5-THIADIAZOL-3-YL)ISOQUINOLINE-6-SULFONAMIDE] was 1750 nM. Regarding `N#Cc1ccccc1-c1ncc(F)c2cc(S(=O)(=O)Nc3nccs3)ccc12` [Example 397, 1-(2-CYANOPHENYL)-4-FLUORO-N-(THIAZOL-2-YL)ISOQUINOLINE-6-SULFONAMIDE], the IC50 came out at 3520 nM. The value for `COc1cc(C#N)ccc1-c1nc(C)nc2cc(S(=O)(=O)Nc3nccs3)ccc12` [Example 517, 4-(4-CYANO-2-METHOXYPHENYL)-2-METHYL-N-(THIAZOL-2-YL)QUINAZOLINE-7-SULFONAMIDE] was 1280 nM; that for `COc1cc(-c2nccs2)ccc1-c1nccc2cc(S(=O)(=O)Nc3ccncn3)ccc12` [Example 456, 1-(2-METHOXY-4-(THIAZOL-2-YL)PHENYL)-N-(PYRIMIDIN-4-YL)ISOQUINOLINE-6-SULFONAMIDE] was 4700 nM. Take `COc1cc(C(F)(F)F)ccc1-c1nccc2cc(S(=O)(=O)N=C3NC(=O)CS3)ccc12` [Example 248, (E/Z)-1-(2-METHOXY-4-(TRIFLUOROMETHYL)PHENYL)-N-(4-OXOTHIAZOLIDIN-2-YLIDENE)ISOQUINOLINE-6-SULFONAMIDE]: the IC50 stood at 910 nM. The value for `COc1cc(-c2ccc(F)nc2)ccc1-c1nccc2cc(S(=O)(=O)Nc3ccncn3)ccc12` [Example 352, 1-(4-(6-FLUOROPYRIDIN-3-YL)-2-METHOXYPHENYL)-N-(PYRIMIDIN-4-YL)ISOQUINOLINE-6-SULFONAMIDE] was 1870 nM; that for `COc1cc(-c2cccnc2OC)ccc1-c1nccc2cc(S(=O)(=O)Nc3ccncn3)ccc12` [Example 482, 1-(2-METHOXY-4-(2-METHOXYPYRIDIN-3-YL)PHENYL)-N-(PYRIMIDIN-4-YL)ISOQUINOLINE-6-SULFONAMIDE] was 778 nM; that for `COc1ncccc1-c1nccc2cc(S(=O)(=O)Nc3nccs3)ccc12` [Example 407, 1-(2-METHOXYPYRIDIN-3-YL)-N-(THIAZOL-2-YL)ISOQUINOLINE-6-SULFONAMIDE] was 4970 nM. To `COc1ccc(C2=CCOCC2)cc1-c1nccc2cc(S(=O)(=O)Nc3ccncn3)ccc12` [Example 353, 1-(5-(3,6-DIHYDRO-2H-PYRAN-4-YL)-2-METHOXYPHENYL)-N-(PYRIMIDIN-4-YL)ISOQUINOLINE-6-SULFONAMIDE] belongs 5170 nM; to `COc1cc(-c2cccc(F)c2)c(Cl)cc1-c1nccc2cc(S(=O)(=O)Nc3cnsn3)ccc12` [Example 334, 1-(2-CHLORO-3′-FLUORO-5-METHOXY-[1,1′-BIPHENYL]-4-YL)-N-(1,2,5-THIADIAZOL-3-YL)ISOQUINOLINE-6-SULFONAMIDE], 109 nM; to `COc1cc(C(F)(F)F)ccc1-c1nccc2cc(S(=O)(=O)Nc3nc(C(F)(F)F)cs3)ccc12` [Example 428, 1-(2-METHOXY-4-(TRIFLUOROMETHYL)PHENYL)-N-(4-(TRIFLUOROMETHYL)THIAZOL-2-YL)ISOQUINOLINE-6-SULFONAMIDE], 4570 nM. To `COc1cc(C(F)(F)F)ccc1-c1nccc2cc(S(=O)(=O)Nc3ncc(Cl)s3)ccc12` [Example 420, N-(5-CHLOROTHIAZOL-2-YL)-1-(2-METHOXY-4-(TRIFLUOROMETHYL)PHENYL)ISOQUINOLINE-6-SULFONAMIDE] belongs 367 nM; to `COc1cc(C(F)(F)F)ccc1-c1nccc2cc(S(=O)(=O)Nc3nc(C)cs3)ccc12` [Example 424, 1-(2-METHOXY-4-(TRIFLUOROMETHYL)PHENYL)-N-(4-METHYLTHIAZOL-2-YL)ISOQUINOLINE-6-SULFONAMIDE], 1660 nM. `COc1cc(-c2cccnc2)c(F)cc1-c1nccc2cc(S(=O)(=O)Nc3nncs3)ccc12` [Example 367, 1-(5-FLUORO-2-METHOXY-4-(PYRIDIN-3-YL)PHENYL)-N-(1,3,4-THIADIAZOL-2-YL)ISOQUINOLINE-6-SULFONAMIDE]: the IC50 was determined as 1420 nM.

In the case of `COc1ccccc1-c1ncc(O)c2cc(S(=O)(=O)Nc3nccs3)ccc12` [Example 234, 4-HYDROXY-1-(2-METHOXYPHENYL)-N-(THIAZOL-2-YL)ISOQUINOLINE-6-SULFONAMIDE 2,2,2-TRIFLUOROACETATE], the IC50 stood at 980 nM.

With `COc1cc(C(F)(F)F)ccc1-c1ccnc2cc(S(=O)(=O)Nc3nccs3)ncc12` [Example 294, 4-(2-METHOXY-4-(TRIFLUOROMETHYL)PHENYL)-N-(THIAZOL-2-YL)-1,6-NAPHTHYRIDINE-7-SULFONAMIDE], the IC50 stood at 2500 nM.

These data come from US9012443B2 (Amgen Inc., priority 2011, dated 2015).
